According to the NIST ThermoML archive (doi:10.1016/j.jct.2016.03.030):
Numbers after ± are expanded uncertainties.

What was measured:
[1] = Molar enthalpy of transition or fusion; conditions: DSC
[2] = for viscosity: 100 kPa, Liquid, Falling or rolling sphere viscometry
[3] = xn = mol fraction of the nth substance listed; conditions: 100 kPa, Liquid, x2 = 0; for viscosity: Falling or rolling sphere viscometry; for mass density: Vibrating tube method

Compound	Molar enthalpy of transition or fusion ([1]; Crystal 1)	Normal melting temperature ([2]; Crystal 1, DTA)	viscosity ([3]; 298.15 K)	viscosity ([3]; 303.15 K)	viscosity ([3]; 308.15 K)	viscosity ([3]; 313.15 K)	viscosity ([3]; 318.15 K)	mass density ([3]; 318.15 K)	viscosity ([3]; 323.15 K)	mass density ([3]; 323.15 K)	viscosity ([3]; 328.15 K)	mass density ([3]; 328.15 K)	viscosity ([3]; 333.15 K)	mass density ([3]; 333.15 K)	viscosity ([3]; 338.15 K)	mass density ([3]; 338.15 K)	viscosity ([3]; 343.15 K)	mass density ([3]; 343.15 K)	further results
CCCCC[N+]1(C)CCCCC1.[Br-] [1-methyl-1-pentylpiperidinium bromide]	8.82 ± 1.1 kJ/mol	173.7 ± 0.41 °C	–	–	–	–	–	–	–	–	–	–	–	–	–	–	–	–	–
CCCC[N+]1(C)CCOCC1.[Br-] [4-butyl-4-methylmorpholinium bromide]	14.1 ± 1.1 kJ/mol	211.32 ± 0.41 °C	–	–	–	–	–	–	–	–	–	–	–	–	–	–	–	–	–
CCCCC[N+]1(C)CCOCC1.[Br-] [4-methyl-4-pentylmorpholinium bromide]	8.13 ± 1.1 kJ/mol	194 ± 0.41 °C	–	–	–	–	–	–	–	–	–	–	–	–	–	–	–	–	–
CCC[N+]1(C)CCOCC1.[Br-] [4-methyl-4-propylmorpholinium bromide]	11.4 ± 1.1 kJ/mol	180.79 ± 0.41 °C	–	–	–	–	–	–	–	–	–	–	–	–	–	–	–	–	Molar enthalpy of transition or fusion ([1]; Crystal 2): 2.3 ± 1 kJ/mol; Triple point temperature ([2]; Crystal 2, DSC): 341.13 ± 0.77 K
O [water]	–	–	–	–	–	–	–	–	–	–	–	–	–	–	–	–	–	–	viscosity ([2]; 298.15 K): 0.912 ± 0.091 mPa·s; viscosity ([2]; 303.15 K): 0.819 ± 0.082 mPa·s; viscosity ([2]; 308.15 K): 0.739 ± 0.074 mPa·s; viscosity ([2]; 313.15 K): 0.671 ± 0.067 mPa·s; viscosity ([2]; 318.15 K): 0.611 ± 0.061 mPa·s; viscosity ([2]; 323.15 K): 0.559 ± 0.056 mPa·s; viscosity ([2]; 328.15 K): 0.514 ± 0.052 mPa·s; viscosity ([2]; 333.15 K): 0.474 ± 0.048 mPa·s; viscosity ([2]; 338.15 K): 0.439 ± 0.044 mPa·s; viscosity ([2]; 343.15 K): 0.408 ± 0.041 mPa·s; Normal melting temperature ([2]; Crystal, visual observation): 0.00 ± 0.39 °C
O [water] + CCCCC[N+]1(C)CCCCC1.[Br-]	–	–	0.912 ± 0.091 mPa·s	0.819 ± 0.082 mPa·s	0.739 ± 0.074 mPa·s	0.671 ± 0.067 mPa·s	0.611 ± 0.061 mPa·s	990.1 ± 1 kg/m3	0.559 ± 0.056 mPa·s	987.9 ± 1 kg/m3	0.514 ± 0.052 mPa·s	985.6 ± 1 kg/m3	0.474 ± 0.048 mPa·s	983.2 ± 1 kg/m3	0.439 ± 0.044 mPa·s	980.3 ± 1 kg/m3	0.408 ± 0.041 mPa·s	978.1 ± 1 kg/m3	–
O [water] + CCCCC[N+]1(C)CCOCC1.[Br-]	–	–	0.912 ± 0.091 mPa·s	0.819 ± 0.082 mPa·s	0.739 ± 0.074 mPa·s	0.671 ± 0.067 mPa·s	0.611 ± 0.061 mPa·s	990.1 ± 1 kg/m3	0.559 ± 0.056 mPa·s	987.9 ± 1 kg/m3	0.514 ± 0.052 mPa·s	985.6 ± 1 kg/m3	0.474 ± 0.048 mPa·s	983.2 ± 1 kg/m3	0.439 ± 0.044 mPa·s	980.3 ± 1 kg/m3	0.408 ± 0.041 mPa·s	978.1 ± 1 kg/m3	–
O [water] + CCCC[N+]1(C)CCOCC1.[Br-]	–	–	0.912 ± 0.091 mPa·s	0.819 ± 0.082 mPa·s	0.739 ± 0.074 mPa·s	0.671 ± 0.067 mPa·s	0.611 ± 0.061 mPa·s	990.1 ± 1 kg/m3	0.559 ± 0.056 mPa·s	987.9 ± 1 kg/m3	0.514 ± 0.052 mPa·s	985.6 ± 1 kg/m3	0.474 ± 0.048 mPa·s	983.2 ± 1 kg/m3	0.439 ± 0.044 mPa·s	980.3 ± 1 kg/m3	0.408 ± 0.041 mPa·s	978.1 ± 1 kg/m3	–
O [water] + CCC[N+]1(C)CCOCC1.[Br-]	–	–	0.912 ± 0.091 mPa·s	0.819 ± 0.082 mPa·s	0.739 ± 0.074 mPa·s	0.671 ± 0.067 mPa·s	0.611 ± 0.061 mPa·s	990.1 ± 1 kg/m3	0.559 ± 0.056 mPa·s	987.9 ± 1 kg/m3	0.514 ± 0.052 mPa·s	985.6 ± 1 kg/m3	0.474 ± 0.048 mPa·s	983.2 ± 1 kg/m3	0.439 ± 0.044 mPa·s	980.3 ± 1 kg/m3	0.408 ± 0.041 mPa·s	978.1 ± 1 kg/m3	–
